This note sets out measurements from PubChem BioAssay (NCI).

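48-hour exposure; five concentrations; linearly interpolated endpoints. TGI: concentration producing complete growth inhibition.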

Among the test systems are ACHN renal; CAKI-1 renal; HT29 colon; IGROV1 ovarian; LOX IMVI melanoma; M14 melanoma; NCI-H522 lung; SK-OV-3 ovarian; TK-10 renal.
Holding throughout (experiment): DTP human tumour cell line panel, 48 h

Take `CC1=CCC2(C#N)CCC1C2=O` (stereo unspecified): the TGI in the experiment on ACHN renal, with CAKI-1 renal, in the experiment on HT29 colon, in the experiment with IGROV1 ovarian, in the experiment with LOX IMVI melanoma and with M14 melanoma was greater than 100 µM in each case. Further, the concentration for total growth inhibition (TGI) in the experiment with NCI-H522 lung, in the experiment on SK-OV-3 ovarian and in the experiment on TK-10 renal was greater than 100 µM each time.
For `CC(C)OCN1COCN=C1NC#N`, the TGI in the experiment with ACHN renal, with CAKI-1 renal, in the experiment with HT29 colon, in the experiment with IGROV1 ovarian, in the experiment on M14 melanoma and with NCI-H522 lung was greater than 100 µM throughout. Further, the TGI in the experiment on SK-OV-3 ovarian and with TK-10 renal was greater than 100 µM each time.
For `COc1ccc(C(=O)C(C(=O)C(=O)Nc2nc3ccc(OC)cc3s2)c2ccc(OC)cc2)cc1` (stereo unspecified), the TGI in the experiment on ACHN renal, in the experiment on CAKI-1 renal, with HT29 colon, in the experiment with IGROV1 ovarian, in the experiment with LOX IMVI melanoma and with M14 melanoma was greater than 100 µM each time. The TGI in the experiment on SK-OV-3 ovarian and in the experiment with TK-10 renal was greater than 100 µM each time.
`Cc1ccccc1NC(=O)C(=O)Cc1nc2ccccc2s1`: the TGI with ACHN renal, with CAKI-1 renal, in the experiment with HT29 colon, in the experiment on IGROV1 ovarian, with LOX IMVI melanoma and with M14 melanoma was greater than 100 µM throughout. The TGI in the experiment on NCI-H522 lung, in the experiment on SK-OV-3 ovarian and in the experiment on TK-10 renal was greater than 100 µM in each case.
Regarding `Nc1nc(N)c(-c2ccccc2)c(C(=O)Nc2ccc(Cl)c(Cl)c2)n1`, the concentration for total growth inhibition (TGI) with ACHN renal, in the experiment with CAKI-1 renal, in the experiment on HT29 colon, with IGROV1 ovarian, in the experiment on LOX IMVI melanoma and in the experiment with M14 melanoma was greater than 100 µM throughout. In the experiment with TK-10 renal, the TGI (as a rule, the concentration giving total growth inhibition) was greater than 100 µM.
Consider `O=C(O)/C(O)=C1/C=C(c2ccccc2)c2ccccc21`, for which the TGI in the experiment with ACHN renal is 94.5 µM; in the experiment with CAKI-1 renal, 63.6 µM; in the experiment on HT29 colon, 86.8 µM; with IGROV1 ovarian, 51.8 µM; in the experiment on LOX IMVI melanoma it was 36.1 µM; in the experiment on M14 melanoma it was 45.3 µM. Moreover, the values for the TGI in the experiment with NCI-H522 lung, with SK-OV-3 ovarian and in the experiment with TK-10 renal were 30.9 µM, greater than 100 µM and 79.8 µM, respectively.
For the compound `C=C(CO)CC(O)c1ccccc1` (stereo unspecified), the TGI in the experiment on ACHN renal, in the experiment on HT29 colon, with IGROV1 ovarian, with LOX IMVI melanoma, in the experiment on M14 melanoma and in the experiment on NCI-H522 lung was greater than 100 µM throughout. The TGI in the experiment with SK-OV-3 ovarian and in the experiment on TK-10 renal was greater than 100 µM each time.
For `CC1CC2C3CC(F)C4=CC(=O)C=CC4(C)C3(F)C(O)CC2(C)C1(O)C(=O)CO` (stereo unspecified), the concentration for total growth inhibition (TGI) in the experiment with ACHN renal, with CAKI-1 renal, in the experiment with HT29 colon, in the experiment with IGROV1 ovarian, in the experiment on LOX IMVI melanoma and in the experiment with M14 melanoma was greater than 100 µM throughout. Further, the TGI with NCI-H522 lung, in the experiment with SK-OV-3 ovarian and in the experiment with TK-10 renal was greater than 100 µM throughout.
For `COc1cc(C2C(C(=O)O)=C(C)Oc3cc4c(cc32)OCO4)cc(OC)c1OC` (stereo unspecified), the TGI in the experiment on ACHN renal, in the experiment with CAKI-1 renal, in the experiment on HT29 colon, in the experiment with IGROV1 ovarian, in the experiment with LOX IMVI melanoma and in the experiment with M14 melanoma was greater than 100 µM in each case. The TGI in the experiment with SK-OV-3 ovarian is 91.2 µM; in the experiment with TK-10 renal it was greater than 100 µM.
With `CSc1s[s+]c(SC)c1[O-]`, the total growth inhibition concentration (TGI) in the experiment on ACHN renal is greater than 100 µM; with CAKI-1 renal, 53.6 µM; in the experiment on HT29 colon, 74.1 µM; with IGROV1 ovarian it was greater than 100 µM; in the experiment with M14 melanoma it was 75.8 µM; in the experiment with NCI-H522 lung it was 32.2 µM. The TGI in the experiment on SK-OV-3 ovarian and with TK-10 renal was greater than 100 µM in each case.
On to `Cc1cccc(NC(=O)CC2C(=O)Nc3ccccc3S2(=O)=O)c1C` (stereo unspecified), for which the TGI was 70.3 µM in the experiment with ACHN renal; greater than 100 µM with CAKI-1 renal; greater than 100 µM with HT29 colon; 60 µM with IGROV1 ovarian; greater than 100 µM in the experiment on M14 melanoma; 33.4 µM in the experiment on NCI-H522 lung. The figures for the TGI in the experiment on SK-OV-3 ovarian and with TK-10 renal were 37.7 µM and 79.5 µM, respectively.
Turning to `COCCN1C2=CCCCC2=Nc2c(N)nc(N)nc21`, the TGI in the experiment with ACHN renal, in the experiment on CAKI-1 renal, in the experiment with HT29 colon, in the experiment on IGROV1 ovarian, in the experiment on LOX IMVI melanoma and with M14 melanoma was greater than 100 µM in each case. The TGI in the experiment with NCI-H522 lung, in the experiment on SK-OV-3 ovarian and with TK-10 renal was greater than 100 µM in each case.
As to `COC(=O)C1CCc2c(OC)ccc(OC)c2C1=O` (stereo unspecified), the TGI with ACHN renal, with CAKI-1 renal, with HT29 colon, in the experiment with IGROV1 ovarian, in the experiment with LOX IMVI melanoma and in the experiment on M14 melanoma was greater than 100 µM throughout. Also, the TGI in the experiment on NCI-H522 lung, in the experiment with SK-OV-3 ovarian and in the experiment on TK-10 renal was greater than 100 µM each time.
Turning to `CNC(=O)OCc1nc(S(C)=O)n(C)c1COC(=O)NC` (stereo unspecified), the TGI in the experiment with ACHN renal is greater than 78.6 µM; with CAKI-1 renal, greater than 93.8 µM; in the experiment on HT29 colon, greater than 100 µM; with IGROV1 ovarian, greater than 82.1 µM; in the experiment on LOX IMVI melanoma it was greater than 100 µM; in the experiment with M14 melanoma, greater than 48.3 µM. Moreover, the TGI with NCI-H522 lung is greater than 100 µM; with SK-OV-3 ovarian, greater than 73.3 µM; in the experiment on TK-10 renal it was greater than 100 µM.
`CCCCCCCCCCCCCCCCCC(=O)NCCCNCCCNC(=O)CCCCCCCCCCCCCCCCC`: the TGI in the experiment on ACHN renal, with CAKI-1 renal, in the experiment with HT29 colon, in the experiment with IGROV1 ovarian, in the experiment on LOX IMVI melanoma and in the experiment with M14 melanoma was greater than 100 µM in each case. Also, the TGI with SK-OV-3 ovarian and in the experiment with TK-10 renal was greater than 100 µM in each case.
